Test [1] relates to liver cancer (HepG2) cells. Kind of test: Tumor growth inhibition in liver cancer xenograft mice. The test is classed as in vivo, Athymic Balb/c nude mice. Conditions: 80 mg/kg orally five times a week; 30 days; vs untreated controls; p<0.001 (FIG. 11). As for the experimental part:
1×10^7 liver cancer (HepG2) cells were implanted with Athymic Balb/c nude mice and when they grew to approximately 200 mm^3, CaMal2 of 80 mg/kg was administered orally five times a week to observe tumor growth for 30 days.

Test [2] has as its system NAD^+ in liver cancer (HepG2), breast cancer (MDA-MB-231), or lung cancer (H1975) cells. Kind of test: NAD^+ levels in treated cancer cells (NAD^+ assay kit). The test is classed as cell-based. The settings on record: HepG2, MDA-MB-231, H1975 cells, CaMal 5 mM, CaMal2 2.5 mM, CaMal-DCA 1 mM, 48 hours, vs untreated controls, p<0.001 (FIG. 2). As for the experimental part: 1×10^6 liver cancer (HepG2), breast cancer (MDA-MB-231), or lung cancer (H 1975) cells were treated with CaMal of 5 mM, CaMal2 of 2.5 mM, or CaMal-DCA of 1 mM for 48 hours, respectively. Then, NAD^+ levels were then analyzed according to the method of Abcam's NAD^+ assay kit.

The subject of test [3] is pancreatic cancer (Aspc-1) cells. Kind of test: Cancer cell survival rate (MTT reagent, absorbance). The test is classed as cell-based. The settings on record: 0.5, 1, 2.5, or 5 mM, 96 hours, p<0.001 vs lower-concentration groups (FIGS. 5, 6). As for the experimental part:
(§1) 3×10^3 kidney cancer (Caki-1) or pancreatic cancer (Aspc-1) cells were incubated for 24 hours and then treated with CaMal2 of 0.5, 1, 2.5, or 5 mM and incubated for 96 hours again. Then, 3-(4,5-dimethylthiazol-2-yl)-2,5-diphenyltetrazolium bromide reagent of 10 μl was added to each well and reacted for 1 hour. After removing the reagent at the end of the reaction, DMSO 200 of μl was added to each well and the absorbance was measured to confirm the survival rate of the cells.
3×10^3 liver cancer (HepG2), lung cancer (H1975), pancreatic cancer (Aspc-1), or breast cancer (MDA-MB-231) cells were cultured for 24 hours and then treated with CaMal-DCA of 0.5, 1, 2.5, or 5 mM and incubated for another 96 hours. Then, 3-(4,5-dimethylthiazol-2-yl)-2,5-diphenyltetrazolium bromide reagent of 10 μl was added to each well and reacted for 1 hour. After removing the reagent at the end of the reaction, DMSO of 200 μl was added to each well and the absorbance was measured to confirm the survival rate of the cells.

The subject of test [4] is kidney cancer (Caki-1) cells. Described as above. The test is classed as cell-based. Conditions: 0.5, 1, 2.5, or 5 mM, 96 hours, p<0.001 vs lower-concentration groups (FIG. 5). As for the experimental part:
as §1

Test [5] relates to Malate dehydrogenase 2 (MDH2). Nature of the test: Malate dehydrogenase 2 (MDH2) level by ELISA in treated cancer cells. The test is classed as cell-based. How it is done:
(§2) 1×10^6 liver cancer (HepG2), breast cancer (MDA-MB-231), or lung cancer (H1975) cells were treated with calcium malate (CaMal) of 5 mM, calcium dimalate (CaMal2) of 2.5 mM, or calcium malate-dichloroacetic acid (CaMal-DCA) of 1 mM for 48 hours, respectively. After that, proteins were then extracted using RIPA buffer. Biorbyt's Malate dehydrogenase 2 (MDH2), Malic enzyme 2 (ME2) and Malic enzyme 3 (ME3) ELISA assay kits were utilized to quantitatively analyze the respective factors in the above extracted proteins.

Test [6] relates to beta cells. Kind of test: Insulin levels in culture medium of pancreatic beta cells. Conditions: CaMal 5 mM or CaMal2 2.5 mM, 48 hours. The test is classed as cell-based. How it is done: 1×10^6 beta cells were treated with CaMal of 5 mM or CaMal2 of 2.5 mM for 48 hours in the absence or presence of glucose of 5 mM, respectively, and a culture medium was harvested. The medium was placed in a spin concentrator (Corning, Inc.) and run at 7,500 g for 10 minutes to obtain insulin assay samples. The samples were quantitatively analyzed using an assay kit manufactured by Enzo company.

In test [7] the test system is cancer cells. Kind of test: Death of cancer cells (summary statement). The test is classed as cell-based. The settings on record: summary of FIGS. 4, 5, 10, 11 (calcium malate, calcium di-malate) and FIGS. 6, 12 (calcium malate and DCA). As for the experimental part: (§3) 3×10^3 colon cancer (HCT-116) or brain cancer (U-87MG) cells were incubated for 24 hours and then treated with CaMal of 0.5, 1, 2.5, or 5 mM and incubated for another 96 hours. Then, 3-(4,5-dimethylthiazol-2-yl)-2,5-diphenyltetrazolium bromide reagent of 10 μl was added to each well and reacted for 1 hour. After removing the reagent at the end of the reaction, DMSO of 200 μl was added to each well and then the absorbance was measured to confirm a survival rate of the cells.
as §1
3×10^3 liver cancer (HepG2), lung cancer (H1975), pancreatic cancer (Aspc-1), or breast cancer (MDA-MB-231) cells were cultured for 24 hours and then treated with CaMal-DCA of 0.5, 1, 2.5, or 5 mM and incubated for another 96 hours. […] After removing the reagent at the end of the reaction, DMSO of 200 μl was added to each well and the absorbance was measured to confirm the survival rate of the cells.

Test [8] deals with Malic enzyme 2 (ME2). Kind of test: Malic enzyme 2 (ME2) level by ELISA in treated cancer cells. The test is classed as cell-based. How it is done:
as §2

The subject of test [9] is Malic enzyme 3 (ME3). Kind of test: Malic enzyme 3 (ME3) level by ELISA in treated cancer cells. The test is classed as cell-based. As for the experimental part:
as §2

Test [10] concerns colon cancer (HCT-116) cells. Kind of test: Cancer cell survival rate (MTT reagent, absorbance). The settings on record: 0.5, 1, 2.5, or 5 mM, 96 hours, p<0.001 vs 0.5, 1, and 2.5 mM groups (FIG. 4). The test is classed as cell-based. How it is done: as §3
In test [11] the test system is brain cancer (U-87MG) cells. Described as above. The test is classed as cell-based. The settings on record: 0.5, 1, 2.5, or 5 mM, 96 hours, p<0.001 vs 0.5, 1, and 2.5 mM groups (FIG. 4). How it is done:
as §3

The test system of test [12] is pancreatic cancer (Aspc-1) cells. Kind of test: Tumor growth inhibition in pancreatic cancer xenograft mice. The test is classed as in vivo, Athymic Balb/c nude mice. The settings on record: 20 mg/kg subcutaneously twice a week; 30 days; vs untreated controls; p<0.001 (FIG. 10). How it is done:
1×10^7 pancreatic cancer (Aspc-1) cells were implanted with Athymic Balb/c nude mice and when they grew to approximately 200 mm^3, CaMal of 20 mg/kg was administered subcutaneously twice a week to monitor tumor growth for 30 days.

Where [13] appears, read: HepG2, MDA-MB-231, H1975 cells, CaMal 5 mM, CaMal2 2.5 mM, CaMal-DCA 1 mM, 48 hours, vs untreated controls, p<0.001 (FIG. 1).
Where [14] appears, read: various cancer cell lines (FIG. 1), stated as activity.

Experimental findings from patent US20260335265A1, “ANTICANCER COMPOSITION COMPRISING MALATE METAL SALT” (BIOSOLYX, priority 2022, published 2026) are described below.

For `O=C(O)CC(O)C(=O)O` (stereo not drawn) [CaMal2, calcium dimalate], the tumor size result in test [1] is “tumor size became reduced visually and clearly”. For the same compound, the “levels of NAD^+” value in test [2] (listed as calcium di-malate) is given as “dramatic exhaustion of NAD^+”. The “survival rate of the cancer cells” value in test [3] and in test [4] was “decreased the survival rate of the cancer cells in a concentration-dependent manner” each time.
In the case of `O=C(O)CC(O)C(=O)O` (stereo not drawn) [CaMal, calcium malate], the “amount of MDH2” value in test [5] (setting [13]) is recorded as “significant increase”. In addition, the “activity of MDH2” value in test [5] (setting [14]) is “significant increase”. Also, the results for the “levels of NAD^+” value in test [2] and in test [2] (listed as calcium malate) were “significant decrease” and “dramatic exhaustion of NAD^+”, respectively. Further, the insulin levels entry is on record as “significant increase in insulin levels” in test [6] (absence of glucose, p<0.001 vs Control (No-glucose) (FIG. 3)) and “significant increase in insulin levels” in test [6] (presence of glucose 5 mM, p<0.001 vs Control (Glucose) (FIG. 3)). Besides, the “death of cancer cells” value in test [7] is reported as “death of cancer cells”. The “amount of ME2” value in [8] (setting [13]) was “significant increase”. In addition, the “activity of ME2 / malic enzymes” value in [8] (setting [14]) is given as “significant increase”. Further, in [9] (setting [13]), the “amount of ME3” value is “significant increase”. Besides, in test [9] (setting [14]), the “activity of ME3 / malic enzymes” value is reported as “significant increase”. For the same compound, the “survival rate of the cancer cells” value in test [10] and in test [11] was “concentration-dependent manner decrease in a survival rate of the cancer cells” throughout. Moreover, in test [12], the tumor size result was “tumor size became reduced visually and clearly”.
